Assay results taken from US20090291857A1, “METHODS TO IDENTIFY INHIBITORS OF THE UNFOLDED PROTEIN RESPONSE” (THE BOARD OF TRUSTEES OF THE LELAND STANFORD JUNIOR …, priority 2006, published 2009).

Target: T1, IRE1α-cyto (Homo sapiens, UniProt O75460)
T1 construct: purified the full cytosolic portion of IRE1α (His6-IRE1α-cyto) containing both kinase and endonuclease domains; 6x-His; made in house; host or cells: bacteria
Experiment: In vitro IRE1α endonuclease (ribonuclease) assay
Type: biochemical
Conditions: 2.5 μM
Protocol: The in vitro ribonuclease assays were carried out using purified IRE1α-cyto essentially as described. Gonzalez and Walter, Methods Mol Biol 160: 25-36 (2001); Gonzalez et al., Embo J 18: 3119-3132 (1999). For each reaction, 5 μg purified IRE1α-cyto was incubated with 300 ng of fluorescein-labeled RNA stem-loop substrate at 37° C. in a total volume of 300 μl. Aliquots (50 μl) were withdrawn at the indicated times and mixed with an equal volume of stop solution. Id. Reactions were analyzed by SDS-PAGE using 10-20% acrylamide gradient gels. The sequence for the hXBP-1 3′ RNA stem-loop substrate is as follows: 5′[…] G 3′ (SEQ ID NO: 8). […]
HT1080 cells were exposed to DMSO vehicle (lane 1), irestatin 9389 (2.5 μM; lane 2) for 16 hours or Tm (5 μg/ml; lane 3) for 8 hours. Following treatments, cells were harvested, lysed, and analyzed by immunoblotting using anti-Grp78 antibody (top) or anti-actin (bottom) as a loading control. […] Cell lysates were analyzed by Western immunoblotting using anti-IRE1α (bottom) or anti-phospho-IRE1α antibodies (top). […] Lysates were analyzed by Western blot using antisera specific for phospho-JNK1 (top) or total JNK1 (bottom). […] F. Quantification of RNA cleavage kinetics. […] Samples were analyzed as in (E).
Next we determined whether irestatin 9389 inhibited the endonuclease function of IRE1α. […]

T1 sequence (O75460 465-977 limits assumed): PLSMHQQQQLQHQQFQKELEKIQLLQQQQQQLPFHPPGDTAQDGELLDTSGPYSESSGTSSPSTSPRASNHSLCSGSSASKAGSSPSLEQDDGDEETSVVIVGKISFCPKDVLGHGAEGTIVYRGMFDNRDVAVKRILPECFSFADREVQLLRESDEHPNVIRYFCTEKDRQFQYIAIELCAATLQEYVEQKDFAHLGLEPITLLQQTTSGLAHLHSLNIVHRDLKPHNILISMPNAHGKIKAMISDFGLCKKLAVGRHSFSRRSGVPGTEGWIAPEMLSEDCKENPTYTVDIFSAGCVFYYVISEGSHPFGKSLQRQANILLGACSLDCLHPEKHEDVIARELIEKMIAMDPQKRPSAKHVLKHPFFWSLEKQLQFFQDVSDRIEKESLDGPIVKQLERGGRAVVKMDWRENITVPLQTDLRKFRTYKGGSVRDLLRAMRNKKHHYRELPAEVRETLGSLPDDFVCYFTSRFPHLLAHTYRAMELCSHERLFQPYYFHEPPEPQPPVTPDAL

Cc1csc(NC(=O)CSc2nc3c(c(C(F)(F)F)c2C#N)CCC3)n1 [Compound 9389]
cleavage of XBP-1 RNA substrate by His6-IRE1α-cyto: strongly inhibited cleavage
